Values quoted from earlier work as cited in article PMC9610285 (Pharmaceutics, 2022).

Tested on: MAO-B
Set-up: method as in earlier work
Conditions: main metabolite of rasagiline; cited from earlier work

NC1CCc2ccccc21 (stereo not shown) [S1-1-aminoindane]
MAO-B inhibition: not a MAO-B inhibitor
